How the values were obtained:
[1] = tested on: Lolium multiflorum; assay: Effect on MDA content in Lolium multiflorum (Italian ryegrass) shoots compound administered at rate of 14 mf/flat measured 72 hr post treatment (reference value: 0.67 uM/L); type: functional
[2] = tested on: Lolium multiflorum; assay: Effect on antioxidant enzyme system in Lolium multiflorum (Italian ryegrass) shoots assessed as glutathione reductase activity per mg protein compound administered at rate of 14 mf/flat measured 24 hr post treatment (reference value: 1.1 nmol/s per mg protein); type: functional
[3] = tested on: Lolium multiflorum; assay: Effect on antioxidant enzyme system in Lolium multiflorum (Italian ryegrass) shoots assessed as catalase activity per mg protein compound administered at rate of 14 mf/flat measured 72 hr post treatment (reference value: 0.12 nmol/s per mg protein); type: functional
[4] = tested on: Triticum aestivum; assay: Effect on antioxidant enzyme system in Triticum aestivum (wheat) shoots assessed as dehydroascorbate reductase activity per mg protein compound administered at rate of 14 mf/flat measured 48 hr post treatment (reference value: 4.6 nmol/s per mg protein); type: functional
[5] = tested on: Triticum aestivum; assay: Effect on photosynthetic activity in Triticum aestivum (wheat) shoots assessed as leaf net photosynthesis rate measured by CO2 production compound administered at rate of 14 mf/flat measured 48 hr post treatment (reference value: 1.92 umol/m2/s); type: functional
[6] = tested on: Shoot; assay: Drug level in Triticum aestivum (wheat) shoots compound administered at rate of 14 mf/flat measured 72 hr post treatment by HPLC; type: ADME
[7] = tested on: Triticum aestivum; assay: Effect on antioxidant enzyme system in Triticum aestivum (wheat) shoots assessed as glutathione reductase activity per mg protein compound administered at rate of 14 mf/flat measured 24 hr post treatment (reference value: 1.1 nmol/s per mg protein); type: functional
[8] = tested on: Triticum aestivum; assay: Effect on photosynthetic activity in Triticum aestivum (wheat) shoots assessed as leaf net photosynthesis rate measured by CO2 production compound administered at rate of 14 mf/flat measured 24 hr post treatment (reference value: 1.35 umol/m2/s); type: functional
[9] = tested on: Lolium multiflorum; assay: Drug level in Lolium multiflorum (Italian ryegrass) compound administered at rate of 14 mf/flat measured 24 hr post treatment by HPLC; type: ADME, organism-based; details: in vivo
[10] = tested on: Lolium multiflorum; assay: Effect on MDA content in Lolium multiflorum (Italian ryegrass) shoots compound administered at rate of 14 mf/flat measured 48 hr post treatment (reference value: 0.65 uM/L); type: functional
[11] = tested on: Lolium multiflorum; assay: Effect on antioxidant enzyme system in Lolium multiflorum (Italian ryegrass) shoots assessed as catalase activity per mg protein compound administered at rate of 14 mf/flat measured 48 hr post treatment (reference value: 0.10 nmol/s per mg protein); type: functional
[12] = tested on: Triticum aestivum; assay: Increase in antioxidant enzyme system in Triticum aestivum (wheat) shoots assessed as increase in dehydroascorbate reductase activity compound administered at rate of 14 mf/flat measured 24 hr post treatment; type: functional
[13] = tested on: Lolium multiflorum; assay: Effect on antioxidant enzyme system in Lolium multiflorum (Italian ryegrass) shoots assessed as ascorbate peroxidase activity per mg protein compound administered at rate of 14 mf/flat measured 48 hr post treatment (reference value: 11.6 nmol/s per mg protein); type: functional
[14] = tested on: Lolium multiflorum; assay: Increase in antioxidant enzyme system in Lolium multiflorum (Italian ryegrass) shoots assessed as increase in ascorbate peroxidase activity compound administered at rate of 14 mf/flat measured 48 hr post treatment; type: functional
[15] = tested on: Lolium multiflorum; assay: Effect on photosynthetic activity in Lolium multiflorum (Italian ryegrass) shoots assessed as dark respiration rate measured by CO2 production compound administered at rate of 14 mf/flat measured 72 hr post treatment (reference value: -1.32 umol/m2/s); type: functional
[16] = tested on: Triticum aestivum; assay: Effect on antioxidant enzyme system in Triticum aestivum (wheat) shoots assessed as catalase activity per mg protein compound administered at rate of 14 mf/flat measured 72 hr post treatment (reference value: 0.13 nmol/s per mg protein); type: functional
[17] = tested on: Lolium multiflorum; assay: Increase in glutathione S-transferase activity in Lolium multiflorum (Italian ryegrass) compound administered at rate of 14 mf/flat measured 24 hr post treatment; type: functional
[18] = tested on: Lolium multiflorum; assay: Effect on antioxidant enzyme system in Lolium multiflorum (Italian ryegrass) shoots assessed as glutathione S-transferase activity per mg protein compound administered at rate of 14 mf/flat measured 48 hr post treatment (reference value: 0.37 nmol/s per mg protein); type: functional
[19] = tested on: Triticum aestivum; assay: Reduction in glutathione S-transferase activity in Triticum aestivum (wheat) shoots compound administered at rate of 14 mf/flat measured 24 hr post treatment; type: functional; set-up: scale not given: the % may be the effect or the level left
[20] = tested on: Triticum aestivum; assay: Effect on photosynthetic activity in Triticum aestivum (wheat) shoots assessed as dark respiration rate measured by CO2 production compound administered at rate of 14 mf/flat measured 24 hr post treatment (reference value: -1.35 umol/m2/s); type: functional
[21] = tested on: Lolium multiflorum; assay: Effect on photosynthetic activity in Lolium multiflorum (Italian ryegrass) shoots assessed as leaf net photosynthesis rate measured by CO2 production compound administered at rate of 14 mf/flat measured 24 hr post treatment (reference value: 4.55 umol/m2/s); type: functional
[22] = tested on: Triticum aestivum; assay: Drug level in Triticum aestivum (wheat) compound administered at rate of 14 mf/flat measured 24 hr post treatment by HPLC; type: ADME, organism-based; details: in vivo
[23] = tested on: Triticum aestivum; assay: Effect on photosynthetic activity in Triticum aestivum (wheat) shoots assessed as leaf net photosynthesis rate measured by CO2 production compound administered at rate of 14 mf/flat measured 72 hr post treatment (reference value: 1.46 umol/m2/s); type: functional
[24] = tested on: Triticum aestivum; assay: Effect on antioxidant enzyme system in Triticum aestivum (wheat) shoots assessed as ascorbate peroxidase activity per mg protein compound administered at rate of 14 mf/flat measured 24 hr post treatment (reference value: 15.7 nmol/s per mg protein); type: functional
[25] = tested on: Triticum aestivum; assay: Effect on antioxidant enzyme system in Triticum aestivum (wheat) shoots assessed as ascorbate peroxidase activity per mg protein compound administered at rate of 14 mf/flat measured 48 hr post treatment (reference value: 18.4 nmol/s per mg protein); type: functional
[26] = tested on: Triticum aestivum; assay: Increase in antioxidant enzyme system in Triticum aestivum (wheat) shoots assessed as increase in dehydroascorbate reductase activity compound administered at rate of 14 mf/flat measured 48 hr post treatment; type: functional
[27] = tested on: Lolium multiflorum; assay: Effect on antioxidant enzyme system in Lolium multiflorum (Italian ryegrass) shoots assessed as dehydroascorbate reductase activity per mg protein compound administered at rate of 14 mf/flat measured 48 hr post treatment (reference value: 3.6 nmol/s per mg protein); type: functional
[28] = tested on: Lolium multiflorum; assay: Increase in antioxidant enzyme system in Lolium multiflorum (Italian ryegrass) shoots assessed as increase in dehydroascorbate reductase activity compound administered at rate of 14 mf/flat measured 24 hr post treatment; type: functional
[29] = tested on: Lolium multiflorum; assay: Effect on photosynthetic activity in Lolium multiflorum (Italian ryegrass) shoots assessed as leaf net photosynthesis rate measured by CO2 production compound administered at rate of 14 mf/flat measured 48 hr post treatment (reference value: 4.89 umol/m2/s); type: functional
[30] = tested on: Triticum aestivum; assay: Effect on MDA content in Triticum aestivum (wheat) shoots compound administered at rate of 14 mf/flat measured 48 hr post treatment (reference value: 0.053 uM/L); type: functional
[31] = tested on: Lolium multiflorum; assay: Effect on antioxidant enzyme system in Lolium multiflorum (Italian ryegrass) shoots assessed as catalase activity per mg protein compound administered at rate of 14 mf/flat measured 24 hr post treatment (reference value: 0.13 nmol/s per mg protein); type: functional
[32] = tested on: Triticum aestivum; assay: Effect on MDA content in Triticum aestivum (wheat) shoots compound administered at rate of 14 mf/flat measured 72 hr post treatment (reference value: 0.050 uM/L); type: functional

Compound | Activity [1] [µM] | Activity [2] [nmol/s/mg protein] | Activity [3] [nmol/s/mg protein] | Activity [4] [nmol/s/mg protein] | Activity [5] [micromol/m2/s] | Drug uptake [6] [ppm] | Activity [7] [nmol/s/mg protein] | Activity [8] [micromol/m2/s] | Drug uptake [9] [ppm] | Activity [10] [µM] | Activity [11] [nmol/s/mg protein] | Activity [12] [%] | Activity [13] [nmol/s/mg protein] | Activity [14] [%] | Activity [15] [micromol/m2/s] | Activity [16] [nmol/s] | Activity [17] [%] | Activity [18] [nmol/s/mg protein] | Activity [19] [%] | Activity [20] [micromol/m2/s] | further results
O=[N+]([O-])c1ccc(Oc2ccc(C(F)(F)F)cc2[N+](=O)[O-])cc1 [FLUORODIFEN] | 0.74 | 1.9 | 0.13 | 5.1 | 2.13 | 0.2 | 1.5 | 1.15 | 0.72 | 0.74 | 0.11 | 9 | 14 | 35 | -1.06 | 0.14 | 97 | 0.5 | 15 | -0.82 | Activity [21]: 4.64 micromol/m2/s; Drug uptake [22]: 0.44 ppm; Activity [23]: 1.25 micromol/m2/s; Activity [24]: 22.9 nmol/s/mg protein; Activity [25]: 20.2 nmol/s/mg protein; Activity [26]: 11%; Activity [27]: 4.3 nmol/s/mg protein; Activity [28]: 8%; Activity [29]: 4.42 micromol/m2/s; Activity [30]: 0.05 µM; Activity [31]: 0.11 nmol/s; Activity [32]: 0.049 µM
CCNc1nc(Cl)nc(NC(C)C)n1 [ATRAZINE] | 0.74 | 1.4 | 0.13 | 5.3 | 0.22 | 1.94 | 1.5 | -0.52 | 4.75 | 0.85 | 0.1 | 20 | 12.2 | 26 | -1.67 | 0.12 | 35 | 0.46 | 37 | -0.51 | Activity [21]: -0.61 micromol/m2/s; Drug uptake [22]: 2.26 ppm; Activity [23]: 0 micromol/m2/s; Activity [24]: 22 nmol/s/mg protein; Activity [25]: 23.5 nmol/s/mg protein; Activity [26]: 15%; Activity [27]: 3.5 nmol/s/mg protein; Activity [28]: 15%; Activity [29]: -1.04 micromol/m2/s; Activity [30]: 0.53 µM; Activity [31]: 0.13 nmol/s; Activity [32]: 0.057 µM

From ChEMBL document CHEMBL3045349, “A comparative study on the interference of two herbicides in wheat and italian ryegrass and on their antioxidant activities and detoxification rates” (J Agric Food Chem, 2011)
